Paper PMC9311596, “Main Bioactive Components and Their Biological Activities from Natural and Processed Rhizomes of Polygonum sibiricum” (Antioxidants, 2022)
Entries after “also recorded” stand apart in the source; their conditions may differ. Read-outs that look alike come from different tables or passages of the source.

How the values were obtained:
[1] = DPPH radical scavenging assay; settings: for EC50: isolated components, read-out: SC50 DPPH
Procedure: (§1) This assay was determined using the procedure previously reported.

[2] = target: T1, acetylcholinesterase (AChE) (Electrophorus electricus, UniProt O42275); assay: biochemical
T1 construct: purchased Sigma-Aldrich
Procedure: The AChE inhibitory assay was performed according to the previous method, with slight modifications. First, 1 mL of DTNB (15 mM) solution, 1 mL of AChI (15 mM) solution, 1 mL of AChE (0.2 U/mL), and various concentrations of PS (50–400 μg/mL) were prepared using sodium phosphate buffer (0.1 M, pH 8.0). The reaction was started by adding 140 μL PBS, 10 μL DTNB solution, 15 μL AChE solution and 20 μL sample. The reaction mixture was incubated at 20 °C in the dark for 10 min, and 10 μL of AChI solution was added. Finally, the reaction mixture was incubated at 20 °C for 10 min, and the absorbance was measured at 405 nm.

[3] = Ferric reducing antioxidant power (FRAP) assay; settings: for FRAP (TE): isolated components, mM Trolox equivalents per gram
Procedure: The FRAP assay was determined using the method previously reported.

[4] = ABTS radical scavenging assay; settings: for EC50: isolated components, read-out: SC50 ABTS
Procedure: as §1

[5] = Superoxide radical scavenging assay; settings: isolated components; read-out: SC50 Superoxide
Procedure: This assay was determined using the method previously reported.

[6] = tested on: LPS-induced NO production in RAW264.7 macrophages; assay: Nitric oxide inhibitory assay; format: cell-based, Murine; settings: Mus musculus
Procedure: Murine RAW264.7 macrophages were cultured in DMEM medium containing 10% fetal bovine serum (FBS) and 1% penicillin at 37 °C, 5% CO2 [37].
The NO inhibitory assay was performed based on the reference method.

[7] = tested on: iNOS; assay: Western blot analysis of iNOS; format: cell-based, Murine; settings: 12.5, 25, and 50 µM, LPS 100 ng/mL, RAW264.7
Procedure: (§2) The Western blot analysis was performed using the reference method with slight modifications. RAW264.7 cells were seeded in 6 cm dishes for 24 h. The cells were treated with sample (12.5, 25, and 50 µM) and LPS (100 ng/mL). After treatment with drugs, cells were washed with cold PBS, and proteins were collected with lysis buffer containing protein inhibitors. After quantification, equal amounts of protein samples were separated using 5–8% SDS-polyacrylamide gels. The proteins were transferred to the membrane by electrophoresis. The membranes were soaked in 2% BSA blocking buffer for 2 h and then washed 2–3 times with TBST. Next, the membranes were visualized with primary antibody (iNOS, TNF-α, and IL-6) and soaked for 1 day. The next day, membranes were washed again with TBST 2–3 times and then soaked with secondary antibody for 2 h. Finally, immuno-reactivity was detected with ECL reagents, exposed with a luminometer photometer, and quantified with Image J.

[8] = tested on: TNF-α; assay: Western blot analysis of TNF-α; format: cell-based, Murine; settings: 12.5, 25, and 50 µM, LPS 100 ng/mL, RAW264.7
Procedure: as §2

[9] = tested on: IL-6; assay: Western blot analysis of IL-6; format: cell-based, Murine; settings: 12.5, 25, and 50 µM, LPS 100 ng/mL, RAW264.7
Procedure: as §2

[10] = isolated compounds, LPS-induced NO, RAW264.7, read-out: Nitric Oxide IC50
[11] = solvent extracts, concentration causing 50% free radical scavenging
[12] = isolated compounds, read-out: AChE IC50 (converted)
[13] = RAW264.7, read-out: Nitric Oxide IC50

T1 sequence (O42275 24-633): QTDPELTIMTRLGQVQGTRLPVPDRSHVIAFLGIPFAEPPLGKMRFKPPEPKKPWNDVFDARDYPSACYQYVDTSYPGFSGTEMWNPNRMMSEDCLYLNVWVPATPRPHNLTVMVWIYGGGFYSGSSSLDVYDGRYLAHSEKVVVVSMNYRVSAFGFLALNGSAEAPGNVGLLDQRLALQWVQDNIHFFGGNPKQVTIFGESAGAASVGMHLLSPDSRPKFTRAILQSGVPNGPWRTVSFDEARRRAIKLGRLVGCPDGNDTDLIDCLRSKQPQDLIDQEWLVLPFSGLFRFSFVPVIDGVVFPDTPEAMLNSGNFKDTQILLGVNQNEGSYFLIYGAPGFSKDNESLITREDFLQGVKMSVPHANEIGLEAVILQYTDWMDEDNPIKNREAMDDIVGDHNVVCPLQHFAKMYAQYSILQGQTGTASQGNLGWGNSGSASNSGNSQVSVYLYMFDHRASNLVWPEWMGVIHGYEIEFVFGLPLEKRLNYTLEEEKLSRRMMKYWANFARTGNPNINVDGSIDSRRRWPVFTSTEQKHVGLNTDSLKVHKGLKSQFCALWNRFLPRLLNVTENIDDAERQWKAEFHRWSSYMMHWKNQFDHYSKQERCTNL

Row | Compound | EC50 [1] | IC50 [2] | FRAP (TE) [3] | EC50 [4] | EC50 [5] | IC50 [6, 10] | SC50 DPPH [1, 11] | TE FRAP ([3]; solvent extracts, mM Trolox equivalents per gram of fresh extract) | SC50 ABTS [4, 11] | IC50 ([6]; solvent extracts, LPS-induced NO, RAW264.7, read-out: Nitric Oxide IC50) | IC50 [2, 12] | inhibition of iNOS production [7] | inhibition of TNF-α production [8] | inhibition of IL-6 production [9] | IC50 [6, 13] | IC50 ([2]; solvent extracts, read-out: AChE IC50 (converted))
1 | COc1cc2ccc(=O)oc2cc1O [Scopoletin (2), scopoletin] | > 400 µM | 32.4 ± 2.05 µM | 2892.97 ± 19.18 mM/g | 91.3 ± 3.36 µM | > 400 µM | 36.3 ± 4.65 µM | – | – | – | – | – | – | – | – | – | –
2 | Cc1cc(C(C)(C)C)c(O)c(C(C)(C)C)c1 [BHT, Butylated hydroxytoluene, reference compound] | 192 ± 8.94 µM | – | 2896.93 ± 21.19 mM/g | 100 ± 7.26 µM | – | – | 35.54 ± 0.64 µg/mL | 3005.93 ± 13.10 mM/g | 20.57 ± 0.22 µg/mL | – | – | – | – | – | – | –
3 | O=c1c(O)c(-c2ccc(O)c(O)c2)oc2cc(O)cc(O)c12 [Quercetin, quercetin, reference compound] | – | – | – | – | – | 18.3 ± 0.54 µM | – | – | – | 7.52 ± 0.25 µg/mL | – | – | – | – | – | –
4 | O=Cc1ccc(CO)o1 [5-HMF (1), 5-hydroxymethylfurfural] | > 400 µM | – | 26.70 ± 0.97 mM/g | > 400 µM | > 400 µM | 34.9 ± 8.8 µM | – | – | – | – | 81.5 ± 11.1 µM | – | – | – | – | –
5 | O=c1c(O[C@@H]2O[C@H](CO)[C@H](O)[C@H](O)[C@H]2O)c(-c2ccc(O)c(O)c2)oc2cc(O)cc(O)c12 [Hyperoside (4), hyperoside] | 12.5 ± 4.02 µM | 121 ± 10.7 µM | 3246.93 ± 31.92 mM/g | 29.3 ± 0.51 µM | 172 ± 3.8 µM | – | – | – | – | – | – | significantly inhibited iNOS production in a concentration-dependent manner | significantly inhibited the production of TNF-α and IL-6 in a concentration-dependent manner | significantly inhibited the production of TNF-α and IL-6 in a concentration-dependent manner | 18.9 ± 1.68 µM | –
6 | C[C@@H]1O[C@@H](OC[C@H]2O[C@@H](Oc3c(-c4ccc(O)c(O)c4)oc4cc(O)cc(O)c4c3=O)[C@H](O)[C@@H](O)[C@@H]2O)[C@H](O)[C@H](O)[C@H]1O [Rutin (5), rutin] | 5.6 ± 0.34 µM | 33.1 ± 5.43 µM | 2221.33 ± 5.02 mM/g | 15.4 ± 0.25 µM | 175 ± 3.02 µM | – | – | – | – | – | – | strongest inhibitory effect among all isolated compounds; also recorded: significantly inhibited iNOS production in a concentration-dependent manner | significantly inhibited the production of TNF-α and IL-6 in a concentration-dependent manner | significantly inhibited the production of TNF-α and IL-6 in a concentration-dependent manner | 9.89 ± 1.36 µM | –
7 | O=C(/C=C/c1ccc(O)c(O)c1)O[C@@H]1C[C@](O)(C(=O)O)C[C@@H](O)[C@H]1O [Chlorogenic acid, chlorogenic acid, reference compound] | – | – | – | – | – | – | – | – | – | – | 68.2 ± 2.9 µM | – | – | – | – | 65.7 µM
8 | O=c1c(O[C@@H]2O[C@H](CO)[C@@H](O)[C@H](O)[C@H]2O)c(-c2ccc(O)c(O)c2)oc2cc(O)cc(O)c12 [Isoquercetin (3), isoquercetin] | 12.6 ± 3.21 µM | 23.1 ± 3.15 µM | 3898.88 ± 23.23 mM/g | 22.7 ± 1.17 µM | 180 ± 4.43 µM | – | – | – | – | – | – | significantly inhibited iNOS production in a concentration-dependent manner | significantly inhibited the production of TNF-α and IL-6 in a concentration-dependent manner | significantly inhibited the production of TNF-α and IL-6 in a concentration-dependent manner | 17 ± 1.28 µM | –
